In patent US20260325685A1, “Radiopharmaceutical Compositions Targeting Carbonic Anhydrase IX and Uses Thereof” (RayzeBio, Inc., priority 2023, published 2026):
pKd: −log10 of the molar value. Where two headings read alike, the source gives them in different places.

Experiments:
human CA-IX = target: T1, human CA-IX (Homo sapiens, UniProt Q16790); test: Surface Plasmon Resonance (SPR) binding kinetics to recombinant human CA-IX (Biacore 8K, single-cycle kinetics, 1:1 binding model); settings: for pKd: SPR, 25° C., pH 7.4, read-out: CAIX KD
T1 construct: purchased Acro CA9-H82E3
Summary of the method: (§1)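 Recombinant human CA-IX or CA-XII captured on streptavidin chips (1200-1800 RU) in PBS-P+, pH 7.4. Single-cycle kinetics over 9 analyte concentrations (100-0.39 nM) with 1% DMSO, 120 s association, 1200 s dissociation, 25° C. Reference- and DMSO-corrected curves fit to 1:1 model for on/off rates.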

human CA-XII = target: T2, human CA-XII (Homo sapiens, UniProt O43570); test: Surface Plasmon Resonance (SPR) binding kinetics to recombinant human CA-XII (Biacore 8K, single-cycle kinetics, 1:1 binding model); settings: pH 7.4, read-out: CAXII KD
T2 construct: purchased Creative BioMart CA12-261H
T2 sequence (O43570 25-354): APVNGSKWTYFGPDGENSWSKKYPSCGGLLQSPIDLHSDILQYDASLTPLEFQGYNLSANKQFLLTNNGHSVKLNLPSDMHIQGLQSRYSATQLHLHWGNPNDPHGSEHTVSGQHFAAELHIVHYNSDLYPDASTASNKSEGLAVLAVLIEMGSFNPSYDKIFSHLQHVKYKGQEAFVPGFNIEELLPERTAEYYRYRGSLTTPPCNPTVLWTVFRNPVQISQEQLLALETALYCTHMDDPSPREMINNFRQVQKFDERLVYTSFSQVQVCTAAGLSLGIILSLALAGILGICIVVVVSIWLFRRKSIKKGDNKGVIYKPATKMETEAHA
Summary of the method: as §1

pKd (human CA-IX; Chelated Metal: None) | Ratio (CAXII/CAIX) (human CA-IX; KD ratio CAXII/CAIX, Chelated Metal: None) | pKd (human CA-XII; Chelated Metal: None, 25° C.) | Compound | pKd (human CA-IX; Chelated Metal: Lu-175) | pKd (human CA-XII; Chelated Metal: Lu-175, 25° C.)
– | – | – | CC(CCC(=O)N[C@@H](CC(=O)N[C@@H](CC(=O)N1CCN(C(=O)CN2CCN(CC(=O)O)CCN(CC(=O)O)CCN(CC(=O)O)CC2)C[C@H]1C(=O)NCCn1cc(COc2ccc3nc(S(N)(=O)=O)sc3c2)nn1)C(=O)O)C(=O)O)(c1ccc(O)cc1)c1ccc(O)cc1.[Lu+3] [Compound 107.26] | > 9.00 | < 8.00
– | – | – | CC(CCC(=O)N[C@@H](CC(=O)N[C@@H](CC(=O)N1CCN(C(=O)CN2CCN(CC(=O)O)CCN(CC(=O)O)CCN(CC(=O)O)CC2)C[C@H]1C(=O)NCCn1cc(C23CC(c4cn5nc(S(N)(=O)=O)sc5n4)(C2)C3)nn1)C(=O)O)C(=O)O)(c1ccc(O)cc1)c1ccc(O)cc1.[Lu+3] [Compound 107.27] | > 9.00 | > 9.00
– | – | – | CC(CCC(=O)N[C@@H](CC(=O)N[C@@H](CC(=O)N1CCN(C(=O)CN2CCN(CC(=O)O)CCN(CC(=O)O)CCN(CC(=O)O)CC2)C[C@H]1C(=O)NCCn1cc(-c2ccc(-c3cn4nc(S(N)(=O)=O)sc4n3)cc2)nn1)C(=O)O)C(=O)O)(c1ccc(O)cc1)c1ccc(O)cc1.[Lu+3] [Compound 107.28] | > 9.00 | > 9.00
– | – | – | CC(CCCC(=O)N1CCOC[C@H]1C(=O)N[C@@H](CC(=O)N1CCN(C(=O)CN2CCN(CC(=O)O)CCN(CC(=O)O)CCN(CC(=O)O)CC2)C[C@H]1C(=O)NCCn1cc(C23CC(C(=O)Nc4nnc(S(N)(=O)=O)s4)(C2)C3)nn1)C(=O)O)(c1ccc(O)cc1)c1ccc(O)cc1.[Lu+3] [Compound 107.29] | > 9.00 | < 8.00
– | – | – | CC(CCC(=O)N[C@@H](CC(=O)N[C@@H](CC(=O)N1CCN(C(=O)CN2CCN(CC(=O)O)CCN(CC(=O)O)CCN(CC(=O)O)CC2)C[C@H]1C(=O)NCCn1cc(-c2ccc(C(=O)Nc3nnc(S(N)(=O)=O)s3)c(Cl)c2)nn1)C(=O)O)C(=O)O)(c1ccc(O)cc1)c1ccc(O)cc1.[Lu+3] [Compound 107.30] | > 9.00 | 8.60 to 9.00
– | – | – | CC(CCCC(=O)N1CCC(C#N)(C(=O)NCC(=O)N2CCN(C(=O)CN3CCN(CC(=O)O)CCN(CC(=O)O)CCN(CC(=O)O)CC3)C[C@@H]2C(=O)NCCn2cc(C34CC(C(=O)Nc5nnc(S(N)(=O)=O)s5)(C3)C4)nn2)CC1)(c1ccc(O)cc1)c1ccc(O)cc1.[Lu+3] [Compound 107.31] | 8.60 to 9.00 | < 8.00
– | – | – | CC1(C)CN(C(=O)CCCC(C)(c2ccc(O)cc2)c2ccc(O)cc2)[C@H](C(=O)N[C@@H](CC(=O)N2CCN(C(=O)CN3CCN(CC(=O)O)CCN(CC(=O)O)CCN(CC(=O)O)CC3)C[C@@H]2C(=O)NCCn2cc(C34CC(C(=O)Nc5nnc(S(N)(=O)=O)s5)(C3)C4)nn2)C(=O)O)CO1.[Lu+3] [Compound 107.32] | > 9.00 | < 8.00
– | – | – | CC(CCCC(=O)N1CCC2(CC2)C[C@H]1C(=O)N[C@@H](CC(=O)N1CCN(C(=O)CN2CCN(CC(=O)O)CCN(CC(=O)O)CCN(CC(=O)O)CC2)C[C@@H]1C(=O)NCCn1cc(C23CC(C(=O)Nc4nnc(S(N)(=O)=O)s4)(C2)C3)nn1)C(=O)O)(c1ccc(O)cc1)c1ccc(O)cc1.[Lu+3] [Compound 107.33] | > 9.00 | < 8.00
– | – | – | CNC(=O)C1(C(=O)NCC(=O)N2CCN(C(=O)CN3CCN(CC(=O)O)CCN(CC(=O)O)CCN(CC(=O)O)CC3)C[C@@H]2C(=O)NCCn2cc(C34CC(C(=O)Nc5nnc(S(N)(=O)=O)s5)(C3)C4)nn2)CCN(C(=O)CCCC(C)(c2ccc(O)cc2)c2ccc(O)cc2)CC1.[Lu+3] [Compound 107.34] | > 9.00 | < 8.00
– | – | – | Cc1cc(C(=O)Nc2nnc(S(N)(=O)=O)s2)ccc1-c1cn(CCNC(=O)[C@@H]2CN(C(=O)CN3CCN(CC(=O)O)CCN(CC(=O)O)CCN(CC(=O)O)CC3)CCN2C(=O)C[C@H](NC(=O)C[C@H](NC(=O)CCC(C)(c2ccc(O)cc2)c2ccc(O)cc2)C(=O)O)C(=O)O)nn1.[Lu+3] [Compound 107.35] | > 9.00 | < 8.00
– | – | – | CC(CCC(=O)N[C@@H](CC(=O)N[C@@H](CC(=O)N1CCN(C(=O)CN2CCN(CC(=O)O)CCN(CC(=O)O)CCN(CC(=O)O)CC2)C[C@H]1C(=O)NCCn1cc(-c2ccc(C(=O)Nc3nnc(S(N)(=O)=O)s3)cc2Cl)nn1)C(=O)O)C(=O)O)(c1ccc(O)cc1)c1ccc(O)cc1.[Lu+3] [Compound 107.36] | > 9.00 | < 8.00
– | – | – | NC(=O)C1(C(=O)NCC(=O)N2CCN(C(=O)CN3CCN(CC(=O)O)CCN(CC(=O)O)CCN(CC(=O)O)CC3)C[C@H]2C(=O)NCCn2cc(C34CC(C(=O)Nc5nnc(S(N)(=O)=O)s5)(C3)C4)nn2)CCN(C(=O)Cn2nc(-c3ccc(O)cc3)c3ccc(O)cc32)CC1.[Lu+3] [Compound 107.37] | < 8.00 | < 8.00
– | – | – | CC(CCC(=O)N[C@@H](CC(=O)N[C@@H](CC(=O)N1CCN(C(=O)CN2CCN(CC(=O)O)CCN(CC(=O)O)CCN(CC(=O)O)CC2)C[C@H]1C(=O)NCCn1cc(C23CC(C(=O)Nc4nnc(S(N)(=O)=O)s4)(C2)C3)nn1)C(=O)O)C(=O)O)(c1ccc(O)cc1)c1ccc(O)cc1.[Lu+3] [Compound 107.38] | > 9.00 | < 8.00
– | – | – | CC(CCC(=O)N[C@@H](CC(=O)N[C@@H](CCC(=O)N1CCN(C(=O)CN2CCN(CC(=O)O)CCN(CC(=O)O)CCN(CC(=O)O)CC2)C[C@H]1C(=O)NCCn1cc(C23CC(C(=O)Nc4nnc(S(N)(=O)=O)s4)(C2)C3)nn1)C(=O)O)C(=O)O)(c1ccc(O)cc1)c1ccc(O)cc1.[Lu+3] [Compound 107.39] | > 9.00 | < 8.00
– | – | – | CCC(CC)Nc1c(F)c(S(N)(=O)=O)c(F)c(F)c1S(=O)(=O)CCOCc1cn(CCNC(=O)[C@H]2CN(C(=O)CN3CCN(CC(=O)O)CCN(CC(=O)O)CCN(CC(=O)O)CC3)CCN2C(=O)C[C@H](NC(=O)[C@@H]2COCCN2C(=O)CCCc2ccc(O)cc2)C(=O)O)nn1.[Lu+3] [Compound 107.41] | 8.60 to 9.00 | < 8.00
– | – | – | C[C@H](Nc1c(F)c(S(N)(=O)=O)c(F)c(F)c1S(=O)(=O)CCOCc1cn(CCNC(=O)[C@H]2CN(C(=O)CN3CCN(CC(=O)O)CCN(CC(=O)O)CCN(CC(=O)O)CC3)CCN2C(=O)C[C@H](NC(=O)[C@@H]2COCCN2C(=O)CCCc2ccc(O)cc2)C(=O)O)nn1)C1CCCC1.[Lu+3] [Compound 107.42] | > 9.00 | 8.00 to 8.60
– | – | – | CC(CCCC(=O)N1CCOC[C@H]1C(=O)N[C@@H](CC(=O)N1CCN(C(=O)CN2CCN(CC(=O)O)CCN(CC(=O)O)CCN(CC(=O)O)CC2)C[C@@H]1C(=O)NCCn1cc(C23CC(C(=O)Nc4nnc(S(N)(=O)=O)s4)(C2)C3)nn1)C(N)=O)(c1ccc(O)cc1)c1ccc(O)cc1.[Lu+3] [Compound 107.44] | > 9.00 | < 8.00
– | – | – | NS(=O)(=O)c1c(F)c(F)c(S(=O)(=O)CCOCc2cn(CCCNC(=O)[C@@H]3CN(C(=O)CN4CCN(CC(=O)O)CCN(CC(=O)O)CCN(CC(=O)O)CC4)CCN3C(=O)CNC(=O)C3(C(=O)O)CCN(C(=O)CCCCc4ccc(O)cc4)CC3)nn2)c(NC2CCCCCCC2)c1F.[Lu+3] [Compound 107.45] | > 9.00 | 8.00 to 8.60
– | – | – | CC(CCC(=O)N[C@@H](CC(=O)N[C@@H](CC(=O)N1CCN(C(=O)CN2CCN(CC(=O)O)CCN(CC(=O)O)CCN(CC(=O)O)CC2)C[C@H]1C(=O)NCCn1cc(C23CC(C(=O)Nc4nnc(S(N)(=O)=O)s4)(C2)C3)nn1)C(N)=O)C(N)=O)(c1ccc(O)cc1)c1ccc(O)cc1.[Lu+3] [Compound 107.47] | 8.60 to 9.00 | < 8.00
– | – | – | CC(CCCC(=O)N1CCOC[C@H]1C(=O)N[C@@H](CC(=O)N1CCN(C(=O)CN2CCN(CC(=O)O)CCN(CC(=O)O)CCN(CC(=O)O)CC2)C[C@H]1C(=O)NCCn1cc(C23CC(c4cn5nc(S(N)(=O)=O)sc5n4)(C2)C3)nn1)C(=O)O)(c1ccc(O)cc1)c1ccc(O)cc1.[Lu+3] [Compound 107.48] | > 9.00 | 8.60 to 9.00
– | – | – | CC(CCCC(=O)N1CCC(C(N)=O)(C(=O)NCC(=O)N2CCN(C(=O)CN3CCN(CC(=O)O)CCN(CC(=O)O)CCN(CC(=O)O)CC3)C[C@H]2C(=O)NCCn2cc(COc3ccc4nc(S(N)(=O)=O)sc4c3)nn2)CC1)(c1ccc(O)cc1)c1ccc(O)cc1.[Lu+3] [Compound 107.49] | > 9.00 | < 8.00
– | – | – | CC(CCC(=O)N[C@@H](CC(=O)N[C@@H](CC(=O)N1CCN(C(=O)CN2CCN(CC(=O)O)CCN(CC(=O)O)CCN(CC(=O)O)CC2)C[C@H]1C(=O)NCCn1cc(C23CC(C(=O)Nc4nnc(S(N)(=O)=O)s4)(C2)C3)nn1)C(=O)O)C(N)=O)(c1ccc(O)cc1)c1ccc(O)cc1.[Lu+3] [Compound 107.50] | > 9.00 | < 8.00
– | – | – | CC(CCCC(=O)N1CCC(CN)(C(=O)NCC(=O)N2CCN(C(=O)CN3CCN(CC(=O)O)CCN(CC(=O)O)CCN(CC(=O)O)CC3)C[C@@H]2C(=O)NCCn2cc(C34CC(C(=O)Nc5nnc(S(N)(=O)=O)s5)(C3)C4)nn2)CC1)(c1ccc(O)cc1)c1ccc(O)cc1.[Lu+3] [Compound 107.51] | 8.60 to 9.00 | < 8.00
– | – | – | NC(=O)C1(C(=O)NCC(=O)N2CCN(C(=O)CN3CCN(CC(=O)O)CCN(CC(=O)O)CCN(CC(=O)O)CC3)C[C@H]2C(=O)NCCn2cc(C34CC(C(=O)Nc5nnc(S(N)(=O)=O)s5)(C3)C4)nn2)CCN(C(=O)CCn2nc(-c3ccc(O)cc3)c3ccc(O)cc32)CC1.[Lu+3] [Compound 107.52] | 8.60 to 9.00 | < 8.00
> 9.00 | **** (50 < ****) | 8.00 to 8.60 | CC(CCCC(=O)N1CCC(C(N)=O)(C(=O)NCC(=O)N2CCN(C(=O)CN3CCN(CC(=O)O)CCN(CC(=O)O)CCN(CC(=O)O)CC3)C[C@H]2C(=O)NCCn2cc(C34CC(c5cn6nc(S(N)(=O)=O)sc6n5)(C3)C4)nn2)CC1)(c1ccc(O)cc1)c1ccc(O)cc1 [Compound 107.53] | – | –
– | – | – | CCCCNc1c(F)c(S(N)(=O)=O)c(F)c(F)c1S(=O)(=O)CCOCc1cn(CCNC(=O)[C@H]2CN(C(=O)CN3CCN(CC(=O)O)CCN(CC(=O)O)CCN(CC(=O)O)CC3)CCN2C(=O)C[C@H](NC(=O)[C@@H]2COCCN2C(=O)CCCc2ccc(O)cc2)C(=O)O)nn1.[Lu+3] [Compound 107.54] | 8.00 to 8.60 | < 8.00
